PubChem BioAssay (NCI)
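Dose response: 5 concentrations. Exposure: 48 h. Format: 96-well plates. Endpoint: linear interpolation; highest concentration if not reached. At the GI50, growth is halved. TGI: total growth inhibition.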

Tests used:
Test in all cases: NCI anticancer screen, dose series, 48 h
[1] = test system: 786-0 renal
[2] = test system: A498 renal
[3] = test system: A549 NSCLC
[4] = test system: ACHN renal
[5] = test system: CCRF-CEM leukemia
[6] = test system: COLO 205 colon
[7] = test system: EKVX NSCLC
[8] = test system: HCC-2998 colon
[9] = test system: HCT-116 colon
[10] = test system: HCT-15 colon
[11] = test system: HL-60(TB) leukemia
[12] = test system: HOP-62 NSCLC
[13] = test system: HOP-92 NSCLC
[14] = test system: IGROV1 ovarian
[15] = test system: K-562 leukemia
[16] = test system: KM12 colon
[17] = test system: M14 melanoma
[18] = test system: MALME-3M melanoma
[19] = test system: MCF7 breast
[20] = test system: MDA-MB-435
[21] = test system: MDA-N
[22] = test system: MOLT-4 leukemia
[23] = test system: NCI-H226 lung
[24] = test system: NCI-H23 lung
[25] = test system: NCI-H460 lung
[26] = test system: NCI-H522 lung
[27] = test system: PC-3 prostate
[28] = test system: RPMI-8226 leukemia
[29] = test system: RXF 393 renal
[30] = test system: SF-268 CNS
[31] = test system: SF-539 CNS
[32] = test system: SK-MEL-2 melanoma
[33] = test system: SK-MEL-5 melanoma
[34] = test system: SK-OV-3 ovarian
[35] = test system: SN12C renal
[36] = test system: SNB-19 CNS
[37] = test system: SNB-75 CNS
[38] = test system: SR leukemia
[39] = test system: SW-620 colon
[40] = test system: T-47D breast
[41] = test system: U251 CNS
[42] = test system: UACC-257 melanoma
[43] = test system: UACC-62 melanoma
[44] = test system: BT-549 breast
[45] = test system: CAKI-1 renal
[46] = test system: DU-145 prostate
[47] = test system: HS 578T breast
[48] = test system: HT29 colon
[49] = test system: LOX IMVI melanoma
[50] = test system: MDA-MB-231 breast
[51] = test system: NCI/ADR-RES ovarian
[52] = test system: OVCAR-3 ovarian
[53] = test system: OVCAR-4 ovarian
[54] = test system: OVCAR-5 ovarian
[55] = test system: OVCAR-8 ovarian
[56] = test system: SF-295 CNS
[57] = test system: SK-MEL-28 melanoma
[58] = test system: TK-10 renal
[59] = test system: UO-31 renal

O=c1[nH]nc(-c2ccccc2)c2[nH]c3c4ccccc4ccc3c12
TGI [1]: 48.1 µM | TGI [2]: > 100 µM | TGI [3]: > 100 µM | TGI [4]: > 100 µM | TGI [5]: > 100 µM | TGI [6]: > 100 µM | TGI [7]: > 100 µM | TGI [8]: 4.81 µM | TGI [9]: > 100 µM | TGI [10]: > 100 µM | TGI [11]: > 100 µM | TGI [12]: > 100 µM | TGI [13]: > 100 µM | TGI [14]: > 100 µM | TGI [15]: > 100 µM | TGI [16]: > 100 µM | TGI [17]: > 100 µM | TGI [18]: > 100 µM | TGI [19]: > 100 µM | TGI [20]: 0.673 µM | TGI [21]: 0.545 µM | TGI [22]: > 100 µM | TGI [23]: > 100 µM | TGI [24]: 32.7 µM | TGI [25]: > 100 µM | TGI [26]: > 100 µM | TGI [27]: > 100 µM | TGI [28]: 3.57 µM | TGI [29]: > 100 µM | TGI [30]: > 100 µM | TGI [31]: 3.17 µM | TGI [32]: > 100 µM | TGI [33]: > 100 µM | TGI [34]: > 100 µM | TGI [35]: > 100 µM | TGI [36]: > 100 µM | TGI [37]: > 100 µM | TGI [38]: > 100 µM | TGI [39]: > 100 µM | TGI [40]: > 100 µM | TGI [41]: > 100 µM | TGI [42]: > 100 µM | TGI [43]: > 100 µM

Cc1cc(S(=O)(=O)Nc2nnc(-c3ccccc3)c(-c3ccccc3)n2)c(SCC(N)=O)cc1Cl
GI50 [1]: 38.6 µM | TGI [1]: > 100 µM | GI50 [2]: > 100 µM | TGI [2]: > 100 µM | GI50 [3]: > 100 µM | TGI [3]: > 100 µM | GI50 [4]: > 100 µM | TGI [4]: > 100 µM | GI50 [44]: 27.4 µM | TGI [44]: 90.6 µM | GI50 [45]: > 100 µM | TGI [45]: > 100 µM | GI50 [5]: 29.3 µM | TGI [5]: 77.4 µM | GI50 [6]: > 100 µM | TGI [6]: > 100 µM | GI50 [46]: 55.7 µM | TGI [46]: > 100 µM | GI50 [7]: > 100 µM | TGI [7]: > 100 µM | GI50 [9]: 20.7 µM | TGI [9]: 37.8 µM | GI50 [10]: > 100 µM | TGI [10]: > 100 µM | GI50 [11]: 53.3 µM | TGI [11]: > 100 µM | GI50 [12]: 52.5 µM | TGI [12]: > 100 µM | GI50 [47]: 32.5 µM | TGI [47]: > 100 µM | GI50 [48]: > 100 µM | TGI [48]: > 100 µM | GI50 [14]: > 100 µM | TGI [14]: > 100 µM | GI50 [15]: 36.3 µM | TGI [15]: > 100 µM | GI50 [16]: 37 µM | TGI [16]: > 100 µM | GI50 [49]: 34.6 µM | TGI [49]: 85.1 µM | GI50 [17]: 56.5 µM | TGI [17]: > 100 µM | GI50 [18]: 30.2 µM | TGI [18]: > 100 µM | GI50 [19]: 36.4 µM | TGI [19]: > 100 µM | GI50 [50]: 36.3 µM | TGI [50]: > 100 µM | GI50 [20]: 51.5 µM | TGI [20]: > 100 µM | GI50 [22]: 24.4 µM | TGI [22]: 49.2 µM | GI50 [23]: 59.9 µM | TGI [23]: > 100 µM | GI50 [24]: 78.7 µM | TGI [24]: > 100 µM | GI50 [25]: 36.9 µM | TGI [25]: > 100 µM | GI50 [26]: 22.9 µM | TGI [26]: 50.9 µM | GI50 [51]: > 100 µM | TGI [51]: > 100 µM | GI50 [52]: 19.6 µM | TGI [52]: 42.8 µM | GI50 [53]: 41.5 µM | TGI [53]: > 100 µM | GI50 [54]: > 100 µM | TGI [54]: > 100 µM | GI50 [55]: 32.5 µM | TGI [55]: 87 µM | GI50 [27]: 94.8 µM | TGI [27]: > 100 µM | GI50 [28]: 30.9 µM | TGI [28]: 86.6 µM | GI50 [30]: 37.6 µM | TGI [30]: > 100 µM | GI50 [56]: 28.5 µM | TGI [56]: 75 µM | GI50 [31]: 0.671 µM | TGI [31]: 30.1 µM | GI50 [32]: 30.5 µM | TGI [32]: 49.2 µM | GI50 [57]: 72.8 µM | TGI [57]: > 100 µM | GI50 [33]: 57.8 µM | TGI [33]: > 100 µM | GI50 [34]: > 100 µM | TGI [34]: > 100 µM | GI50 [35]: 62.3 µM | TGI [35]: > 100 µM | GI50 [36]: 35.3 µM | TGI [36]: > 100 µM | GI50 [37]: > 100 µM | TGI [37]: > 100 µM | GI50 [38]: 24.1 µM | TGI [38]: 47.6 µM | GI50 [39]: 41.5 µM | TGI [39]: > 100 µM | GI50 [40]: 34.5 µM | TGI [40]: > 100 µM | GI50 [58]: > 100 µM | TGI [58]: > 100 µM | GI50 [41]: 31.1 µM | TGI [41]: 78.4 µM | GI50 [42]: 33.1 µM | TGI [42]: 97.6 µM | GI50 [43]: 24.6 µM | TGI [43]: 56.2 µM | GI50 [59]: > 100 µM | TGI [59]: > 100 µM

Nc1nc(N)c2ncn(-c3ccc(Cl)cc3)c2n1
TGI [1]: > 100 µM | TGI [2]: 83.5 µM | TGI [3]: > 100 µM | TGI [4]: > 100 µM | TGI [45]: > 100 µM | TGI [5]: 66.1 µM | TGI [6]: > 100 µM | TGI [46]: > 100 µM | TGI [7]: > 100 µM | TGI [8]: > 100 µM | TGI [9]: > 100 µM | TGI [10]: > 100 µM | TGI [11]: > 100 µM | TGI [12]: > 100 µM | TGI [13]: > 100 µM | TGI [48]: > 100 µM | TGI [14]: 96.3 µM | TGI [16]: > 100 µM | TGI [49]: > 100 µM | TGI [17]: > 100 µM | TGI [18]: > 100 µM | TGI [19]: > 100 µM | TGI [50]: > 100 µM | TGI [20]: > 100 µM | TGI [21]: > 100 µM | TGI [23]: > 100 µM | TGI [24]: > 100 µM | TGI [26]: > 100 µM | TGI [51]: > 100 µM | TGI [52]: > 100 µM | TGI [53]: > 100 µM | TGI [54]: > 100 µM | TGI [55]: > 100 µM | TGI [27]: > 100 µM | TGI [29]: 73.5 µM | TGI [56]: > 100 µM | TGI [31]: 80.5 µM | TGI [32]: > 100 µM | TGI [57]: > 100 µM | TGI [33]: > 100 µM | TGI [34]: 53.3 µM | TGI [35]: > 100 µM | TGI [37]: 59.1 µM | TGI [40]: > 100 µM | TGI [58]: > 100 µM | TGI [41]: > 100 µM | TGI [42]: > 100 µM | TGI [43]: > 100 µM | TGI [59]: > 100 µM
